Assay type in all cases: biochemical
Experiment [1] addresses Human KLK1 (Homo sapiens (Human), UniProt P06870). As to the kind of experiment: Determination of the IC50 for KLK1. The note with it: 25° C., substrate H-DVal-Leu-Arg-AFC. The method, then:
Human KLK1 (Callbiochem) was incubated at 25° C. with the fluorogenic substrate H-DVal-Leu-Arg-AFC and various concentrations of the test compound. Residual enzyme activity (initial rate of reaction) was determined by measuring the change in […] at 410 nm and the IC50 value for the test compound was determined.

In experiment [2] the target is Human FXIa (Homo sapiens (Human), UniProt P03951). Nature of the experiment: Determination of the % inhibition / IC50 for FXIa. The note with it: for IC50: 25° C., substrate Z-Gly-Pro-Arg-AFC. How it is done:
FXIa inhibitory activity in vitro was determined using standard published methods (see e.g. Johansen et al., Int. J. Tiss. Reac. 1986, 8, 185; Shori et al., Biochem. Pharmacol., 1992, 43, 1209; Sturzebecher et al., Biol. Chem. Hoppe-Seyler, 1992, 373, 1025). […]

Experiment [3] concerns the target Human Factor XIIa (Homo sapiens (Human), UniProt P00748). As to the kind of experiment: Factor XIIa inhibitory activity in vitro. The note with it: 25° C., substrate H-DPro-Phe-Arg-AFC; read-out: IC50 (human FXIIa). The method, then:
Human Factor XIIa (Enzyme Research Laboratories) was incubated at 25° C. with the fluorogenic substrate H-DPro-Phe-Arg-AFC and various concentrations of the test compound. Residual enzyme activity (initial rate of reaction) was determined by measuring the change in […] at 410 nm and the IC50 value for the test compound was determined.

Experiment [4] concerns the target Human plasma kallikrein (Homo sapiens (Human), UniProt P03952). As to the kind of experiment: Determination of the IC50 for plasma kallikrein. The note with it: 25° C., substrate H-DPro-Phe-Arg-AFC; read-out: IC50 (human PKal). How it is done:
Human plasma kallikrein (Protogen) was incubated at 25° C. with the fluorogenic substrate H-DPro-Phe-Arg-AFC and various concentrations of the test compound. Residual enzyme activity (initial rate of reaction) was determined by measuring the change in […] at 410 nm and the IC50 value for the test compound was determined.

Sequence of Human KLK1 (P06870 25-262): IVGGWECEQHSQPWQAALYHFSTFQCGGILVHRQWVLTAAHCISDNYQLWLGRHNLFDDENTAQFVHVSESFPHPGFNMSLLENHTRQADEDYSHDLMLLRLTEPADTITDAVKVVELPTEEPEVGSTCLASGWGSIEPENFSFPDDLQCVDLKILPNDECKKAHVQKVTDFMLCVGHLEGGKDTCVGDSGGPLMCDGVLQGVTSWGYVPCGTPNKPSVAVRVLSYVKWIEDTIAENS
Sequence of Human Factor XIIa (P00748 373-615): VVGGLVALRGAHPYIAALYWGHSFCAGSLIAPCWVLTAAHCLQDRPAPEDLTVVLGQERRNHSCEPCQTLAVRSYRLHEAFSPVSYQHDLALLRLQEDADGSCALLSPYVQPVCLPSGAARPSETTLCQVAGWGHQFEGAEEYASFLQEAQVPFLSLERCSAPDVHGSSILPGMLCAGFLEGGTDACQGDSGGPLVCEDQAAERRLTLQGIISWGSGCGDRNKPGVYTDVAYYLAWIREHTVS
Sequence of Human plasma kallikrein (P03952 391-638): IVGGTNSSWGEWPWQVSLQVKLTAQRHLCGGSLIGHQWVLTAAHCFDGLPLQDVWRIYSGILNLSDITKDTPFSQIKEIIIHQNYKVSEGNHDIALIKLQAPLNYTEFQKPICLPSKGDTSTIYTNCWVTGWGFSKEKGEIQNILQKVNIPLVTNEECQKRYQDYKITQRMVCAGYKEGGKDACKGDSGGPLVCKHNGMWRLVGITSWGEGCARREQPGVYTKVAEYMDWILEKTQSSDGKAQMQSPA
Sequence of Human plasma kallikrein (P03952 20-390): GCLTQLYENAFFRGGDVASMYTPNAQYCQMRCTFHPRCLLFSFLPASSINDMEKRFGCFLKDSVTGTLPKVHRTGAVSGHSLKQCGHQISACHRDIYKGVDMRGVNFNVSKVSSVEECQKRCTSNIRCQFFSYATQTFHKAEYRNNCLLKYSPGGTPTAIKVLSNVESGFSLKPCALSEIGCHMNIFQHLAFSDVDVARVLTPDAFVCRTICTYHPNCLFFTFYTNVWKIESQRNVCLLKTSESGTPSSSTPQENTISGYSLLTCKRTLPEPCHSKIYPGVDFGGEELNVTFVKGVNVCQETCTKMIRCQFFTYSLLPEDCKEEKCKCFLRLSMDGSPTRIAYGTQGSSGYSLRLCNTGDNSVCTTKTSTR
Sequence of Human FXIa (P03951 388-625): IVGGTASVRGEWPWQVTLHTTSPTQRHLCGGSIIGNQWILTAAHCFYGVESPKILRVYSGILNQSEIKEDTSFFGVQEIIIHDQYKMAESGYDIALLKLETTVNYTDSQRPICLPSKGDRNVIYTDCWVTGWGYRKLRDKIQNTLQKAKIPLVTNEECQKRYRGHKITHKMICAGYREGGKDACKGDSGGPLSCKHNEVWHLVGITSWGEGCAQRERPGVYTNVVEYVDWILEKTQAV
Sequence of Human FXIa (P03951 19-387): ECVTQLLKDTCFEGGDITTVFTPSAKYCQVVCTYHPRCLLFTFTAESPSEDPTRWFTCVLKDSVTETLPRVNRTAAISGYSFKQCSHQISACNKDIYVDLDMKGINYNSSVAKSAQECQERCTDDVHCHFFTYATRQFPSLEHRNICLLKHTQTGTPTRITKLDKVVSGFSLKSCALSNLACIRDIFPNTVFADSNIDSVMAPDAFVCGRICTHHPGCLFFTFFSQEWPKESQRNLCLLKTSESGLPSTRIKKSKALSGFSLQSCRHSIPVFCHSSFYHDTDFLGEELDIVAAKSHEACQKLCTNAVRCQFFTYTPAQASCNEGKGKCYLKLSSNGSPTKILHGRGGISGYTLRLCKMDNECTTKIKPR

As for `COCc1nn(Cc2ccc(Cn3ccccc3=O)cc2)cc1C(=O)NCc1nccc(OC)n1` [Example 10, 3-(methoxymethyl)-N-[(4-methoxypyrimidin-2-yl)methyl]-1-({4-[(2-oxopyridin-1-yl)methyl]phenyl}methyl)pyrazole-4-carboxamide], the half-maximal inhibitory concentration (IC50) (in general, the concentration needed to halve the response being measured) in experiment [1] is more than 40 µM; in experiment [2], more than 40 µM; in experiment [3], more than 40 µM; in experiment [4], 2450 nM.
Regarding `COCc1nn(Cc2ccc(Cn3ccccc3=O)cc2)cc1C(=O)NCc1ncc(C)c(OC)c1C` [Example 11, N-[(4-methoxy-3,5-dimethylpyridin-2-yl)methyl]-3-(methoxymethyl)-1-({4-[(2-oxopyridin-1-yl)methyl]phenyl}methyl)pyrazole-4-carboxamide], the IC50 in experiment [1] is more than 40 µM; in experiment [2], more than 40 µM; in experiment [3], more than 40 µM; in experiment [4] it was 35 nM.
Turning to `COCc1nn(Cc2ccc(Cn3ccccc3=O)cc2)cc1C(=O)NCc1ncccc1C#N` [Example 13, N-[(3-cyanopyridin-2-yl)methyl]-3-(methoxymethyl)-1-({4-[(2-oxopyridin-1-yl)methyl]phenyl}methyl)pyrazole-4-carboxamide], the IC50 was more than 4 µM in experiment [1], more than 40 µM in experiment [2], more than 4 µM in experiment [3] and 2950 nM in experiment [4].
On to `COCc1nn(Cc2ccc(Cn3ccccc3=O)cc2)cc1C(=O)NCc1ncc(Cl)cc1C#N` [Example 16, N-[(5-chloro-3-cyanopyridin-2-yl)methyl]-3-(methoxymethyl)-1-({4-[(2-oxopyridin-1-yl)methyl]phenyl}methyl)pyrazole-4-carboxamide], for which the concentration for half-maximal inhibition (IC50) in experiment [1] is more than 40 µM; in experiment [2], more than 40 µM; in experiment [3] it was more than 40 µM; in experiment [4] it was 187 nM.
In the case of `COCc1nn(Cc2ccc(Cn3ccccc3=O)cc2)cc1C(=O)NCc1ncc(Cl)cc1F` [Example 17, N-[(5-chloro-3-fluoropyridin-2-yl)methyl]-3-(methoxymethyl)-1-({4-[(2-oxopyridin-1-yl)methyl]phenyl}methyl)pyrazole-4-carboxamide], the IC50 is more than 40 µM in experiment [1], more than 40 µM in experiment [2], more than 40 µM in experiment [3] and 143 nM in experiment [4].
For the molecule `COCc1nn(Cc2ccc(Cn3ccccc3=O)cc2)cc1C(=O)NCc1cc(OC)c(C)cn1` [Example 20, N-[(4-methoxy-5-methylpyridin-2-yl)methyl]-3-(methoxymethyl)-1-({4-[(2-oxopyridin-1-yl)methyl]phenyl}methyl)pyrazole-4-carboxamide], the IC50 was more than 40 µM in experiment [1], more than 40 µM in experiment [2], more than 40 µM in experiment [3] and 3220 nM in experiment [4]. For the same molecule, the inhibition (as a rule, the percentage by which the read-out fell short of the control) at 40 µM in experiment [2] (40 μM test compound, read-out: % Inhibition @ 40 μM (human FXIa)) is 0%.
`COCc1nn(Cc2ccc(Cn3ccccc3=O)cc2)cc1C(=O)NCc1ncc(F)cc1F` [Example 26, N-[(3,5-difluoropyridin-2-yl)methyl]-3-(methoxymethyl)-1-({4-[(2-oxopyridin-1-yl)methyl]phenyl}methyl)pyrazole-4-carboxamide]: the IC50 is more than 40 µM in experiment [1], more than 40 µM in experiment [2], more than 40 µM in experiment [3] and 1760 nM in experiment [4].
`COCc1nn(Cc2ccc(Cn3ccccc3=O)cc2)cc1C(=O)NCc1nc(C)ccc1F` [Example 27, N-[(3-fluoro-6-methylpyridin-2-yl)methyl]-3-(methoxymethyl)-1-({4-[(2-oxopyridin-1-yl)methyl]phenyl}methyl)pyrazole-4-carboxamide]: the IC50 in experiment [1] is more than 40 µM; in experiment [2], more than 40 µM; in experiment [3], more than 40 µM; in experiment [4], 775 nM.
`COCc1nn(Cc2ccc(Cn3ccccc3=O)cc2)cc1C(=O)NCc1nccc(C)c1F` [Example 28, N-[(3-fluoro-4-methylpyridin-2-yl)methyl]-3-(methoxymethyl)-1-({4-[(2-oxopyridin-1-yl)methyl]phenyl}methyl)pyrazole-4-carboxamide]: the IC50 in experiment [1] is more than 40 µM; in experiment [2] it was more than 40 µM; in experiment [3], more than 40 µM; in experiment [4] it was 163 nM.
For the molecule `COCc1nn(Cc2ccc(Cn3ccccc3=O)cc2)cc1C(=O)NCc1nccc(C)c1Cl` [Example 29, N-[(3-chloro-4-methylpyridin-2-yl)methyl]-3-(methoxymethyl)-1-({4-[(2-oxopyridin-1-yl)methyl]phenyl}methyl)pyrazole-4-carboxamide], the IC50 in experiment [1] is more than 40 µM; in experiment [2], more than 40 µM; in experiment [3], more than 40 µM; in experiment [4], 217 nM.
In the case of `COCc1nn(Cc2ccc(Cn3ccccc3=O)cc2)cc1C(=O)NCc1cc(OC)n(C)n1` [Example 31, N-[(5-methoxy-1-methylpyrazol-3-yl)methyl]-3-(methoxymethyl)-1-({4-[(2-oxopyridin-1-yl)methyl]phenyl}methyl)pyrazole-4-carboxamide], the IC50 in experiment [1] was more than 40 µM; in experiment [2] it was more than 40 µM; in experiment [3], more than 40 µM; in experiment [4], 462 nM.
Turning to `COCc1nn(Cc2ccc(Cn3ccccc3=O)cc2)cc1C(=O)NCc1cccc(OC)c1C#N` [Example 38, N-[(2-cyano-3-methoxyphenyl)methyl]-3-(methoxymethyl)-1-({4-[(2-oxopyridin-1-yl)methyl]phenyl}methyl)pyrazole-4-carboxamide], the IC50 in experiment [1] was more than 4 µM; in experiment [2], more than 40 µM; in experiment [3], more than 4 µM; in experiment [4], 301 nM.
In the case of `COCc1nn(Cc2ccc(Cn3ccccc3=O)cc2)cc1C(=O)NCc1cc(OC)ccc1C` [Example 41, N-[(5-methoxy-2-methylphenyl)methyl]-3-(methoxymethyl)-1-({4-[(2-oxopyridin-1-yl)methyl]phenyl}methyl)pyrazole-4-carboxamide], the IC50 is more than 4 µM in experiment [1], more than 40 µM in experiment [2], more than 4 µM in experiment [3] and 149 nM in experiment [4].
In the case of `COCc1nn(Cc2ccc(CN3CCCCC3=O)cc2)cc1C(=O)NCc1c(C#N)ccc(OC)c1F` [Example 57, N-[(6-cyano-2-fluoro-3-methoxyphenyl)methyl]-3-(methoxymethyl)-1-({4-[(2-oxopiperidin-1-yl)methyl]phenyl}methyl)pyrazole-4-carboxamide], the IC50 is more than 40 µM in experiment [1], more than 40 µM in experiment [2], more than 40 µM in experiment [3] and 27.9 nM in experiment [4].

These data come from US11180484B2, “Pyrazole derivatives as plasma kallikrein inhibitors” (KALVISTA PHARMACEUTICALS LIMITED, priority 2016, dated 2021).
